{
  "source": "patent US7988972B2",
  "about": "“Immunoreactive peptides from Epstein-Barr virus” (Ortho-Clinical Diagnostics, Inc., priority 1993, dated 2011)",
  "tested_on": "CD8+ T-cell subpopulation",
  "assay": "Proliferation assay with CD8+-enriched T-cell subpopulation",
  "type": "cell-based, human",
  "procedure": "PBL enriched for T-cell subpopulations were isolated by depleting a particular population by antibody/complement-mediated cytotoxicity. CD4^+ cells were prepared by lysing CD8^+ cells with anti-CD8 antibody and rabbit complement whereas the CD8^+ T cell subpopulation was enriched by lysing CD4^+ cells with an anti-CD4 antibody and rabbit complement.\nPBL were resuspended in RPMI-1640 medium containing 2 mM L-glutamine, 25 mM HEPES, and 10 μg per ml gentamicin (HEPES media) at a concentration of 20×10^6 cells per ml. T cell specific MAb, OKT4 or OKT8 (Ortho Diagnostics Inc.), was added to the cells at the optimal concentration (previously determined by titration to give maximal lysis) and incubated on ice for 30 minutes. The cells were then washed with fresh HEPES media and resuspended at 10×10^6 cells per ml in baby rabbit complement (Pel-Freez Clinical Systems) diluted with the HEPES media to the appropriate concentration (previously assayed to give maximal antibody-specific cytotoxicity). The cells were incubated for 45 minutes in a 37° C. water bath with gentle mixing every 15 minutes. After incubation, the cells were washed thoroughly with the HEPES media and an aliquot (1-2×10^6) of cells was removed and stained for flow cytometric analysis which was performed as described below. […]",
  "data": [
    {"sequence": "ETFTETWNRFITHTE [p17.1, synthetic peptide from 17 Kd early antigen (EA-R) region of EBV]", "values": [
      {"measurement": "proliferation response", "setting": "CD8+ subpopulation from donor A", "result": "unresponsive"},
      {"measurement": "S.I.", "setting": "CD8+ subpopulation from donor B, 50 μg per ml", "result": "greater than 3"}
    ]}
  ]
}
